Measurements from patent US7238714B2, “Aryl or heteroaryl amide compounds” (Pfizer Japan, Inc., priority 2003, dated 2007).
pKi: −log10 of the molar value.

Assays:
hEP4 [1] = biological target: T1, hEP4 (Homo sapiens, UniProt P35408); test: cAMP assay in human EP4 transfectant (functional assay); assay type: cell-based; design: expressed in transfected cells; host or cells: HEK293 (hEP4 cells), selected with geneticin; conditions: vs 1 nM PGE2; for IC50: cAMP in HEK293 cells expressing human EP4
Protocol: cAMP Assay in Human EP4 Transfectant
HEK293 cells expressing human EP4 receptors (hEP4 cells) are maintained in DMEM containing 10% FBS and 500 μg/ml geneticin. For harvesting hEP4 cells, culture medium is aspirated and cells in 75 cm^2 flask are washed with 10 ml of phosphate buffered saline (PBS). Another 10 ml of PBS is added to the cells and incubated for 20 min at room temperature. Human EP4 cells are harvested by pipetting and centrifuged at 300×g for 4 min. Cells are resuspended in DMEM without neutral red at a density of 7×10^5 cells/ml containing 0.2 mM IBMX (PDE inhibitor), 1 nM PGE2 and test compounds in PCR-tubes, and incubated at 37° C. for 10 min. The reaction is stopped by heating at 100° C. for 10 min with thermal cycler. Concentration of cAMP in reaction mixtures is determined with SPA cAMP Kit (Amersham) or cAMP Screen™ (Applied Biosystems) according to the manufacture's instruction. • Reference: Eur. J. Pharmacol. 340 (1997) 227–241

hEP4 [2] = biological target: T1, hEP4; test: Human EP receptor cell membrane binding assay ([3H]-PGE2); design: expressed in transfected cells; membrane fraction; conditions: [3H]-PGE2 binding to membranes of human EP4/HEK293 transfectant; acidic and hypotonic buffer condition, MME buffer
Excerpt: Human EP Receptor Cell Membrane Binding Assay:
Stable Expression of Human EP1, 2, 3 and 4 Receptors in the Human Embryonic Kidney (HEK293) Cell Line
The cDNA clones of human EP1, 2, 3 and 4 receptors are obtained by polymerase chain reaction (PCR) from […] kidney or heart cDNA libraries (Clontech). Human embryonic kidney cells (HEK 293) are stably transfected with expression vectors for human EP1, 2, 3 and 4 receptors in according to the method described in the article; the journal of biological chemistry vol. 271 No. 39, pp 23642–23645.
Preparation of Membrane Fraction:
The EP1, 2, 3 and 4 transfectant are grown in Dulbecco's modified Eagle's medium containing 10% fetal bovine serum, 50 U/ml penicillin, 50 μg/ml streptomycin and 500 μg/ml G418 (selection medium) at 37° C. in a humidified atmosphere of 5% CO2 in air. For the membrane preparation, cells are harvested with phosphate buffered saline (PBS) and centrifuged at 400×g for 5 min. The pellet is suspended with child (4° C.) PBS containing 1/100 volume of protease inhibitor cocktail (SIGMA) (1 mM (4-(2-aminoethyl)-benzenesulfonyl fluoride (AEBSF)), 0.8 μM Aprotinin, 22 μM Leupeptin, 40 μM Bestatin, 15 μM Pepstatin A and 14 μM E-64). Cells are lysed with ultrasonic cell disrupter for 60-sec sonication. Then cell mixtures are centrifuged at 1,000×g for 10 minutes. The supernatant μs centrifuged at 160,000×g for 30 minutes at 4° C. The pellet is resuspended in assay buffer (10 mM 2-morpholinoeth-anesulfonic acid (MES)-KOH, 1 mM etylenediamine tetra-acetic acid (EDTA), 10 mM MgCl2, pH 6.0), and protein concentration is determined by Bradford method (Bio-Rad assay). This membrane preparation is stored at −80° C. freezer until use for binding assay.
[^3H]-PGE2 membrane binding assays are performed in the reaction mixture of 10 mM MES/KOH (pH6.0), 10 mM MgCl2, 1 mM EDTA, 1 nM [^3H]-PGE2 (Amersham TRK431, 164 Ci/mmol), 2˜10 μg of protein from membrane fraction (human EP1, 2, 3 and 4/HEK293 transfectant) and test compound (total volume is 0.1 ml in 96 well polypropylene plate). Incubation is conducted for 60 min at room temperature prior to separation of the bound and free radioligand by rapid filtration through glass fiber filters (Printed Filtermat B, 1205-404, glass fiber, double thickness, size 102×258 mm, Wallac inc., presoaked in 0.2% polyethylenimine). Filters are washed with assay buffer and the residual [^3H]-PGE2 bound to the filter is determined by liquid scintillation counter (1205 Betaplate™). Specific binding is defined as the difference between total binding and nonspecific binding which is determined in the presence of 10 μM PGE2.

T1 sequence (P35408 whole entry): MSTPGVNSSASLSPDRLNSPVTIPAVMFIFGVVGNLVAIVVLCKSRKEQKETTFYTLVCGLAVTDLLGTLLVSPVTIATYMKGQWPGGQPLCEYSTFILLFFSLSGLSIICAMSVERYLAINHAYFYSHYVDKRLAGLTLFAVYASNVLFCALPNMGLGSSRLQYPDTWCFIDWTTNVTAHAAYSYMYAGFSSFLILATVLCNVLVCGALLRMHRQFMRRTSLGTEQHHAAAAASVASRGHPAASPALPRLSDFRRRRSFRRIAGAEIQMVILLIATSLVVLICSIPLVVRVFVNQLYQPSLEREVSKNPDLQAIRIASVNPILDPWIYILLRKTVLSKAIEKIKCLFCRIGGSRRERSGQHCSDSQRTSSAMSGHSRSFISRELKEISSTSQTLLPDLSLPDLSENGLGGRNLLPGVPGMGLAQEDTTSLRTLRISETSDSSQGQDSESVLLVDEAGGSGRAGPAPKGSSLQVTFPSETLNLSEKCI

C[C@H](NC(=O)c1cc(Cl)cnc1Oc1cccc(-c2nccs2)c1)c1ccc(C(=O)O)cc1 [Example 45, 4-{(1S)-[({5-CHLORO-2-[3-(1,3-THIAZOL-2-YL)PHENOXY]PYRIDIN-3-YL}CARBONYL)AMINO]ETHYL}BENZOIC ACID]
IC50 (hEP4 [1]): 28 nM
pKi (hEP4 [2]): 9.52

C[C@H](NC(=O)c1cc(Cl)cnc1Oc1cccc(F)c1)c1ccc(C(=O)O)cc1 [Example 48, 4-[(1S)-1-({[5-CHLORO-2-(3-FLUOROPHENOXY)PYRIDIN-3-YL]CARBONYL}AMINO)ETHYL]BENZOIC ACID]
IC50 (hEP4 [1]): 19 nM
pKi (hEP4 [2]): 9.00

C[C@H](NC(=O)c1cc(Cl)cnc1Oc1ccc(F)c(F)c1)c1ccc(C(=O)O)cc1 [Example 55, 4-[(1S)-1-({[5-CHLORO-2-(3,4-DIFLUOROPHENOXY)PYRIDIN-3-YL]CARBONYL}AMINO)ETHYL]BENZOIC ACID]
IC50 (hEP4 [1]): 20 nM
pKi (hEP4 [2]): 9.15

O=C(O)c1ccc(CNC(=O)c2cc(C(F)(F)F)cnc2Oc2ccc(F)cc2)cc1 [Example 56, 4-[({[2-(4-FLUOROPHENOXY)-5-(TRIFLUOROMETHYL)PYRIDIN-3-YL]CARBONYL}AMINO)METHYL]BENZOIC ACID]
IC50 (hEP4 [1]): 820 nM
pKi (hEP4 [2]): 7.70

N#Cc1cnc(Oc2ccc(F)cc2)c(C(=O)NCc2ccc(C(=O)O)cc2)c1 [Example 57, 4-[({[5-CYANO-2-(4-FLUOROPHENOXY)PYRIDIN-3-YL]CARBONYL}AMINO)METHYL]BENZOIC ACID]
inhibition at 5 µM (hEP4 [1]; @ 5000 nM, read-out: functional assay human EP4 % Inh.): 75%
IC50 (hEP4 [1]): 1800 nM
pKi (hEP4 [2]): 7.04

C[C@H](NC(=O)c1cc(Cl)ccc1Oc1ccc(F)cc1)c1ccc(C(=O)O)cc1 [Example 68, 4-((1S)-1-{[5-CHLORO-2-(4-FLUOROPHENOXY)BENZOYL]AMINO}ETHYL)BENZOIC ACID]
IC50 (hEP4 [1]): 43 nM
pKi (hEP4 [2]): 8.62

O=C(NCc1ccc(-c2nn[nH]n2)cc1)c1cc(Cl)cnc1Oc1ccc(F)cc1 [Example 74, 5-CHLORO-2-(4-FLUOROPHENOXY)-N-[4-(2H-TETRAZOL-5-YL)BENZYL]NICOTINAMIDE]
IC50 (hEP4 [1]): 140 nM
pKi (hEP4 [2]): 8.40

O=C(NCc1ccc(-c2nn[nH]n2)cc1)c1cc(Cl)ccc1Oc1ccc(F)cc1 [Example 76, 5-CHLORO-2-(4-FLUOROPHENOXY)-N-[4-(2H-TETRAZOL-5-YL)BENZYL]BENZAMIDE]
IC50 (hEP4 [1]): 100 nM
pKi (hEP4 [2]): 8.74

C[C@H](NC(=O)c1cc(Cl)cnc1Oc1cccc(F)c1)c1ccc(C(=O)NS(=O)(=O)c2cccc(Cl)c2)cc1 [Example 79, 5-CHLORO-N-{(1S)-1-[4-({[(3-CHLOROPHENYL)SULFONYL]AMINO}CARBONYL)PHENYL]ETHYL}-2-(3-FLUOROPHENOXY)NICOTINAMIDE]
IC50 (hEP4 [1]): 21 nM
pKi (hEP4 [2]): 9.15

C[C@H](NC(=O)c1cc(Cl)ccc1Cc1cccc(Cl)c1)c1ccc(C(=O)O)cc1 [Example 148, 4-((1S)-1-{[5-CHLORO-2-(3-CHLOROBENZYL)BENZOYL]AMINO}ETHYL)BENZOIC ACID]
IC50 (hEP4 [1]): 3.6 nM
pKi (hEP4 [2]): 9.15
